From patent US20130274258A1, “CARBAZOLE AND CARBOLINE DERIVATIVES, AND PREPARATION AND THERAPEUTIC APPLICATIONS THEREOF” (PHILIP MORRIS PRODUCTS S.A., priority 2010, published 2013) come the findings set out here.

One data set has as its system fibrosarcoma HT1080. The experiment in a line: Xenograft model in nude mice, fibrosarcoma HT1080. Type of data set: in vivo, human. The procedure: (§1) The compounds of the invention were evaluated in human tumor xenograft mouse models. Nude mice were subcutaneously implanted with tumor cells (melanoma A2058, colon carcinoma HCT116, fibrosarcoma HT1080 and acute myelocytic leukemia MV114) and when the tumor reached a volume of about 100-150 mm^3, treatment was initiated. Tumor growth was followed over time until tumor volume reached 1000-1500 mm^3 or up to 60 days. An example of how tumor developed over time when the animals were administered or not with E3 three times once a week (qwk×3) is presented in FIG. 7. […]
(In general: In xenograft studies the graft and the host belong to different species.)

A further data set has as its system human tumor xenograft. The data set can be described thus: Human tumor xenograft mouse models, summary over models. Type of data set: in vivo. To be noted: nude mice, three times once a week (qwk×3), FIG. 7. The procedure:
as §1

Another data set deals with caspase 3 and 7. The data set can be described thus: Apoptosis induction in Jurkat cells, caspase 3 and 7 assay. Type of data set: cell-based. The procedure: Compounds were assessed for their ability to induce apoptosis of Jurkat cells at 2 and 10 micromolar after 4 and 22 hours.
In order to firmly establish that the compounds of the invention cause cytotoxicity through apoptosis, IC50 of five compounds of the invention, doxorubicin and staurosporin were determined in the caspase assays; results are presented in Table 2. Importantly, the IC50 determined in the Alamar Blue and in the caspase assays were largely overlapping.

In data set [1] the test system is Jurkat cells. The experiment in a line: Jurkat cell viability, resazurin (Alamar Blue) assay. Type of data set: cell-based. The following applies: Homo sapiens, Jurkat. The procedure:
The compounds were tested for pharmacological activity. In each of the tests, each compound was tested at […] in duplicates. […] The percentage of response relative to the DMSO control was then calculated for the mean value of the duplicates of each test. The values of the three tests were finally averaged and the standard deviations calculated.
Jurkat cells (10'000 cells/well) were incubated in the presence of various concentrations of compounds, doxorubicin or staurosporine. Twenty-two hours later, cells were incubated with resazurin (20 μg/ml) for 4 hours and fluorescence was measured at 590 nm.
(Resazurin is reduced to fluorescent resorufin, in cell work by metabolically active cells.)

For data set [2], the system named is Jurkat cells. The experiment in a line: Annexin V staining of Jurkat cells by flow cytometry. Type of data set: cell-based. The following applies: Homo sapiens, 22 hours, 0.005 to 10 μM, read-out: half-maximal annexin V staining. The procedure:
Jurkat cells were cultured for 22 hours in the presence of E3 at 1.1 μM from a stock solution at 10 mM in DMSO or in the presence of graded concentrations of E3 (0.005 to 10 μM). Then, the cell's were stained with phycoerythrin-labeled annexin V following the instructions of the manufacturer (Millipore) and analyzed by flow cytometry (Guava, Millipore) to determine annexin V staining.
Background: Flow cytometry measures light scatter and fluorescence of single cells or particles in a stream.

The subject of a further data set is colon carcinoma HCT116. The data set can be described thus: Xenograft model in nude mice, colon carcinoma HCT116. Type of data set: in vivo, human. The method, then:
as §1

The test system of the next data set is melanoma A2058. The data set can be described thus: Xenograft model in nude mice, melanoma A2058. Type of data set: in vivo, human. The procedure:
as §1

In data set [3] the test system is acute myelocytic leukemia MV114. The experiment in a line: Xenograft model in nude mice, acute myelocytic leukemia MV114. Type of data set: in vivo, human. The method, then: as §1
The nature of data set [4]: Solubilization in intravenous formulation. Type of data set: physicochemical. To be noted: aqueous with cosolvent or surfactant or cyclodextrin; 5% Cremophor and 5% ethanol in water. From the text: This formulation was then used for the subsequent animal studies (maximal tolerated dose, pharmacokinetics and efficacy in cancer models).
The nature of data set [5]: Pharmacokinetics after intravenous injection, plasma concentration. Type of data set: in vivo. To be noted: mice, 15 mg/kg intravenous. The procedure: The pharmacokinetics of E3 and E35 were investigated. Mice intravenously injected with 15 mg/kg of E3 were bled after 0, 1, 5, 10, 20, 30, 60, 120 and 480 minutes. […] For E35, mice intravenously injected with 30 mg/kg of […] were bled after 0, 1, 5, 10, 20, 30, 60, 120 and 480 minutes. […] Concentration then decreased steadily over the 8 hours of the study. During the first four hours after injection, circulating concentrations of E3 and E35 were found largely similar.

Another data set addresses purified porcine tubulin (Sus scrofa, UniProt P02550+P02554). The data set can be described thus: Inhibition of 3H-labeled colchicine binding to purified tubulin, scintillation proximity assay. The following applies: graded doses. The method, then: A series of compounds according to the invention and C14 vincristine and colchicine were tested for their capacity to inhibit ^3H-labeled colchicine binding to purified tubulin. Briefly, a limiting amount of tritium-labeled colchicine and graded doses of test compounds were added to purified porcine tubulin. After an incubation period, radioactivity associated with tubulin was determined using a scintillation proximity assay. […] By showing that these compounds interact with the colchicine binding site, it differentiates them from the tubulin inhibitors of the Vinca alkaloid- and taxane-types. The results also indicate that the compounds of the invention can be used in combination with the Vinca alkaloid- and taxane-types of tubulin inhibitors since they bind to a different aspect of tubulin, and likely affect tubulin polymerization via a different mechanism. The results also indicate that the compounds of the invention can be used even in patients who are refractory or non-responsive to other tubulin inhibitors, such as the tubulin inhibitors of the Vinca alkaloid- and taxane-types.

The subject of data set [6] is panel of human tumor cell lines. The data set can be described thus: Sensitivity of a panel of human tumor cell lines, Alamar Blue. The following applies: graded doses, 22 hours + 4 hours Alamar Blue. Type of data set: cell-based. The method, then: Sensitivity and resistance of a panel of human tumor cell lines to treatment with E3 were investigated. An optimal number of cells (usually between 2'000 and 5'000 for adherent cells and 10'000 for cells growing in suspension) from the different tumor lines were treated with graded doses of E3. After 22 hours, Alamar Blue was added following the instructions provided by the manufacturer (Invitrogen). Four hours later, fluorescence of the wells was determined at 590 nm.

Where [7] appears, read: median, endpoint = death or defined tumor volume, 23 without treatment.

purified porcine tubulin, sequence (P02554 whole entry): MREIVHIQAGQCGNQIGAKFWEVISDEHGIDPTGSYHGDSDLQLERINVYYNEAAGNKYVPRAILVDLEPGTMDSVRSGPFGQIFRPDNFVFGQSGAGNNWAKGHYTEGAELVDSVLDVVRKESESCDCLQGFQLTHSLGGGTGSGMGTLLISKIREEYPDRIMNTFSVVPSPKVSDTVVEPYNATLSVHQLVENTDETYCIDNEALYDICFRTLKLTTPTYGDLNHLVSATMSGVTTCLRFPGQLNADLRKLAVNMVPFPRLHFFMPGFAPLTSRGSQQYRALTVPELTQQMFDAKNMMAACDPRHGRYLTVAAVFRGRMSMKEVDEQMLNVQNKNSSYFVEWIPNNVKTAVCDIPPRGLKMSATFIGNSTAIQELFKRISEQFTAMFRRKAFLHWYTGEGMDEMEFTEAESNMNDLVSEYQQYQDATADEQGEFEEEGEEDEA
purified porcine tubulin, sequence (P02550 whole entry): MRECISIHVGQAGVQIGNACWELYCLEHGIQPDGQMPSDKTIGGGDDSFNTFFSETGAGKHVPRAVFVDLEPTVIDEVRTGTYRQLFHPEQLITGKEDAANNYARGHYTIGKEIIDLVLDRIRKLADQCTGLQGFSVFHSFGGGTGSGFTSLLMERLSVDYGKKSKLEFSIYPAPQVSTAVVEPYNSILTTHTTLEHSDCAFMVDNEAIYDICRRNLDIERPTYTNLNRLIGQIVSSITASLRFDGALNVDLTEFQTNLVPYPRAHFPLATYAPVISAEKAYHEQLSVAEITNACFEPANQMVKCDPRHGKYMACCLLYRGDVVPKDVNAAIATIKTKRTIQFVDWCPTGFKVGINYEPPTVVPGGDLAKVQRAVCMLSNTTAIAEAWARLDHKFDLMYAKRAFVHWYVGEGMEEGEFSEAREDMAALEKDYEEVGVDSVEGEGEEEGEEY

Take `CC(=O)O[C@@]12CO[C@@H]1C[C@H](O)[C@@]1(C)C(=O)[C@H](O)C3=C(C)[C@@H](OC(=O)[C@H](O)[C@@H](NC(=O)OC(C)(C)C)c4ccccc4)C[C@@](O)([C@@H](OC(=O)c4ccccc4)[C@H]21)C3(C)C` [Docetaxel, reference compound]: the “Control with reference compound and days to study endpoint” value (“Control with reference compound and days” below) in the data set on fibrosarcoma HT1080 (reference compound) is “not reached by day 58 days”.
What is called IC50 is the concentration at which inhibition is half-maximal. By solubility is commonly meant the dissolved amount per volume that the medium holds. `Cc1nccc2c1[nH]c1ccc(-c3cc(Cl)cc(Cl)c3)cc12` [Example E3, 6-(3,5-dichlorophenyl)-1-methyl-9H-pyrido[3,4-b]indole]: the “effect on tumor growth” value with human tumor xenograft is reported as “delayed tumor growth”. Besides, the “caspase 3 and 7 activity compared to solvent control (%)” value is −13.6% in the data set with caspase 3 and 7 (2 μM after 4 h); 689.0% in the data set with caspase 3 and 7 (2 μM after 22 h); 12.7% in the data set with caspase 3 and 7 (10 μM after 4 h); 743.7% in the data set on caspase 3 and 7 (10 μM after 22 h). The IC50 in the data set on caspase 3 and 7 (Homo sapiens, Jurkat cells, caspase 3/7 assay) stood at 0.054 µM; with Jurkat cells [1] it was 0.089 µM. The EC50 in the data set with Jurkat cells [2] lay in the range of 0.1 to 0.2 µM. The “% time delay to reach study endpoint relative to no treatment” value in the data set on colon carcinoma HCT116 (best treatment) worked out at 57%; with fibrosarcoma HT1080 (best treatment), 91%; in the data set with melanoma A2058 (best treatment), 22%; in data set [3] (best treatment) it was 52%. Further, the “Days to reach study endpoint with best treatment” value amounted to 36 days in the data set on colon carcinoma HCT116 (setting [7]); 44 days in the data set with fibrosarcoma HT1080 (setting [7]); 28 days in the data set with melanoma A2058 (setting [7]); 32 days in data set [3] (median, endpoint = death or defined tumor volume, 21 without treatment). In data set [4], this compound yielded a solubility of no more than 3300 µg/mL. In data set [5], the “exposure (plasma concentration) for several hours” value lay within 3 to 10 µg/mL. In [5] (mouse, plasma, 1 minute after injection), this compound gave a concentration at 1 min of 60000 ng/mL. Besides, in data set [5] (mouse, plasma, 20 minutes), the concentration at 20 min was 8000 ng/mL. The same compound returned a concentration at 8 h in data set [5] (mouse, plasma, 8 hours) of 3000 ng/mL. The “inhibition of 3H-labeled colchicine binding to tubulin” value on purified porcine tubulin is given as “inhibited binding of colchicine”. Besides, the “sensitivity of tumor cell lines of hematopoietic origin versus other cell lines” value in [6] is on record as “more sensitive than the other cell lines”.
Take `CCc1c2c(nc3ccc(OC(=O)N4CCC(N5CCCCC5)CC4)cc13)-c1cc3c(c(=O)n1C2)COC(=O)[C@]3(O)CC` [Irinotecan, reference compound]: the “Control with reference compound and days” value in the data set on colon carcinoma HCT116 (reference compound) is given as “not reached by day 58 days”.
Consider `CC[C@]1(O)C[C@@H]2CN(CCc3c([nH]c4ccccc34)[C@@](C(=O)OC)(c3cc4c(cc3OC)N(C)[C@H]3[C@@](O)(C(=O)OC)[C@H](OC(C)=O)[C@]5(CC)C=CCN6CC[C@]43[C@@H]65)C2)C1` [Vinblastine, reference compound], for which the “Control with reference compound and days” value is given as “Vinblastine, 45 days” in the data set on melanoma A2058 (reference compound) and “not reached by day 58 days” in data set [3] (reference compound).
